Patent US20240124417A1, “COMPOUNDS USEFUL AS IMMUNOMODULATORS” (Bristol-Myers Squibb Company, priority 2019, published 2024)

Target: T1, PD-1/PD-L1 (Homo sapiens, UniProt Q9NZQ7)
T1 construct: TVMV protease site linker (C); made in house; host or cells: HEK293T cells
Assay: PD-1/PD-L1 Homogenous Time-Resolved Fluorescence (HTRF) binding assay
Conditions: PD-L1-His 10 nM, PD-1-Ig 20 nM
How it was run: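 Time-resolved FRET read-out using Eu-cryptate anti-Ig (1 nM final) and APC anti-His (20 nM final). Tagged extracellular domains were used in BSA/Tween-20-supplemented dPBS, with compound pre-incubated 15 min with PD-L1-His (10 nM) before PD-1-Ig (20 nM) was added for 15 min. Other human pairs: PD-L2-His 5 nM with PD-1-Ig 20 nM; PD-L1-Ig 10 nM with CD80-His 100 nM.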

T1 sequence (Q9NZQ7 18-239): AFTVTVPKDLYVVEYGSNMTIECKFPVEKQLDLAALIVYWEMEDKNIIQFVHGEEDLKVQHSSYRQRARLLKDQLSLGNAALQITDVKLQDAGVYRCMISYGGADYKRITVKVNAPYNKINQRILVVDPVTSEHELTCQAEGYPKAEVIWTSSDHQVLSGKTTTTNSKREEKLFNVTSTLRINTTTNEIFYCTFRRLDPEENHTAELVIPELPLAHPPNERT

Structure (SMILES) | IC50 [nM]
Cc1c(COc2cc(OCc3cncc(C#N)c3)c(CN(C)Cc3cccnc3)cc2Cl)cccc1-c1cccc(OCCCN2CC[C@@H](O)C2)c1C [Example 2501, (R)-5-((4-chloro-5-((3′-(3-(3-hydroxypyrrolidin-1-yl)propoxy)-2,2′-dimethyl-[1,1′-biphenyl]-3-yl)methoxy)-2-((methyl(pyridin-3-ylmethyl)amino)methyl)phenoxy)methyl)nicotinonitrile] | 2.3
Cc1c(COc2cc(OCc3cncc(C#N)c3)c(CN3CCc4c(ncn4C)C3)cc2Cl)cccc1-c1cccc(OCCCN2CC[C@@H](O)C2)c1C [Example 2502] | 0.9
Cc1nc2c(s1)CN(Cc1cc(Cl)c(OCc3cccc(-c4cccc(OCCCN5CC[C@@H](O)C5)c4C)c3C)cc1OCc1cncc(C#N)c1)CC2 [Example 2503, (R)-5-((4-chloro-5-((3′-(3-(3-hydroxypyrrolidin-1-yl)propoxy)-2,2′-dimethyl-[1,1′-biphenyl]-3-yl)methoxy)-2-((2-methyl-6,7-dihydrothiazolo[5,4-c]pyridin-5(4H)yl)methyl)phenoxy)methyl)nicotinonitrile] | 3.9
Cc1c(COc2cc(OCc3cncc(C#N)c3)c(CNCCc3nc4ccccc4[nH]3)cc2Cl)cccc1-c1cccc(OCCCN2CC[C@@H](O)C2)c1C [Example 2505, (R)-5-((2-(((2-(1H-benzo[d]imidazol-2-yl)ethyl)amino)methyl)-4-chloro-5-((3′-(3-(3 hydroxypyrrolidin-1-yl)propoxy)-2,2′-dimethyl-[1,1′-biphenyl]-3yl)methoxy)phenoxy)methyl)nicotinonitrile] | 6.7
Cc1c(COc2cc(OCc3cncc(C#N)c3)c(CN(C)CCc3cscn3)cc2Cl)cccc1-c1cccc(OCCCN2CC[C@@H](O)C2)c1C [Example 2507, (R)-5-((4-chloro-5-((3′-(3-(3-hydroxypyrrolidin-1-yl)propoxy)-2,2′-dimethyl-[1,1′-biphenyl]-3-yl)methoxy)-2-((methyl(2-(thiazol-4-yl)ethyl)amino)methyl)phenoxy)methyl)nicotinonitrile] | 1.7
Cc1c(COc2cc(OCc3cncc(C#N)c3)c(CN(C)CCc3nc4ccccc4[nH]3)cc2Cl)cccc1-c1cccc(OCCCN2CC[C@@H](O)C2)c1C [Example 2508, (R)-5-((2-(((2-(1H-benzo[d]imidazol-2-yl)ethyl)(methyl)amino)methyl)-4-chloro-5-((3′-(3-(3-hydroxypyrrolidin-1-yl)propoxy)-2,2′-dimethyl-[1,1′-biphenyl]-3-yl)methoxy)phenoxy)methyl)nicotinonitrile] | 6.2
Cc1c(COc2cc(OCc3cncc(C#N)c3)c(CN(C)CCc3ncn[nH]3)cc2Cl)cccc1-c1cccc(OCCCN2CC[C@@H](O)C2)c1C [Example 2509, (R)-5-((2-(((2-(1H-1,2,4-triazol-5-yl)ethyl)(methyl)amino)methyl)-4-chloro-5-((3′-(3-(3-hydroxypyrrolidin-1-yl)propoxy)-2,2′-dimethyl-[1,1′-biphenyl]-3-yl)methoxy)phenoxy)methyl)nicotinonitrile] | 0.2
Cc1c(COc2cc(OCc3cncc(C#N)c3)c(CN(C)CCc3nc4ccccc4n3C)cc2Cl)cccc1-c1cccc(OCCCN2CC[C@@H](O)C2)c1C [Example 2510, (R)-5-((4-chloro-5-((3′-(3-(3-hydroxypyrrolidin-1-yl)propoxy)-2,2′-dimethyl-[1,1′-biphenyl]-3-yl)methoxy)-2-((methyl(2-(1-methyl-1H-benzo[d]imidazol-2-yl)ethyl)amino)methyl)phenoxy)methyl)nicotinonitrile] | 3.3
Cc1ncsc1CCN(C)Cc1cc(Cl)c(OCc2cccc(-c3cccc(OCCCN4CC[C@@H](O)C4)c3C)c2C)cc1OCc1cncc(C#N)c1 [Example 2511, (R)-5-((4-chloro-5-((3′-(3-(3-hydroxypyrrolidin-1-yl)propoxy)-2,2′-dimethyl-[1,1′-biphenyl]-3-yl)methoxy)-2-((methyl(2-(4-methylthiazol-5-yl)ethyl)amino)methyl)phenoxy)methyl)nicotinonitrile] | 3.3
Cc1c(COc2cc(OCc3cncc(C#N)c3)c(CN3CCc4[nH]ncc4C3)cc2Cl)cccc1-c1cccc(OCCCN2CC[C@@H](O)C2)c1C [Example 2512, (R)-5-((4-chloro-5-((3′-(3-(3-hydroxypyrrolidin-1-yl)propoxy)-2,2′-dimethyl-[1,1′-biphenyl]-3-yl)methoxy)-2-((1,4,6,7-tetrahydro-5H-pyrazolo[4,3-c]pyridin-5-yl)methyl)phenoxy)methyl)nicotinonitrile] | 3.9
Cc1c(COc2cc(OCc3cncc(C#N)c3)c(CN3CCC(c4cc[nH]n4)C3)cc2Cl)cccc1-c1cccc(OCCCN2CC[C@@H](O)C2)c1C (stereo partly drawn) [Example 2513, 5-((2-((3-(1H-pyrazol-3-yl)pyrrolidin-1-yl)methyl)-4-chloro-5-((3′-(3-((R)-3-hydroxypyrrolidin-1-yl)propoxy)-2,2′-dimethyl-[1,1′-biphenyl]-3-yl)methoxy)phenoxy)methyl)nicotinonitrile] | 3.6

The next lines start with the values.

IC50 [nM] | Structure (SMILES)
1.9 | Cc1c(COc2cc(OCc3cnccn3)c(CNCc3c[nH]cn3)cc2Cl)cccc1-c1cccc(OCC2CCCN(C)C2)c1Cl (stereo not shown) [Example 2060, N-((1H-imidazol-4-yl)methyl)-1-(5-chloro-4-((2′-chloro-2-methyl-3′-((1-methylpiperidin-3-yl)methoxy)-[1,1′-biphenyl]-3-yl)methoxy)-2-(pyrazin-2-ylmethoxy)phenyl)methanamine]
16.9 | Cc1c(COc2cc(OCc3cncc(C#N)c3)c(CNCc3cccnn3)cc2Cl)cccc1-c1cccc(OCc2cncnc2)c1Cl [Example 2061, 5-((4-chloro-5-((2′-chloro-2-methyl-3′-(pyrimidin-5-ylmethoxy)-[1,1′-biphenyl]-3-yl)methoxy)-2-(((pyridazin-3-ylmethyl)amino)methyl)phenoxy)methyl)nicotinonitrile]
7.6 | Cc1c(COc2cc(OCc3cncc(C#N)c3)c(CNCc3c[nH]cn3)cc2Cl)cccc1-c1cccc(OCc2cncnc2)c1Cl [Example 2062, 5-((2-((((1H-imidazol-4-yl)methyl)amino)methyl)-4-chloro-5-((2′-chloro-2-methyl-3′-(pyrimidin-5-ylmethoxy)-[1,1′-biphenyl]-3-yl)methoxy)phenoxy)methyl)nicotinonitrile]
28.5 | Cc1c(COc2cc(OCc3cncc(C#N)c3)c(CNCc3ncccn3)cc2Cl)cccc1-c1cccc(OCc2cncnc2)c1Cl [Example 2063, 5-((4-chloro-5-((2′-chloro-2-methyl-3′-(pyrimidin-5-ylmethoxy)-[1,1′-biphenyl]-3-yl)methoxy)-2-(((pyrimidin-2-ylmethyl)amino)methyl)phenoxy)methyl)nicotinonitrile]
179 | Cc1c(COc2cc(OCc3cncc(C#N)c3)c(CNCc3cccnn3)cc2Cl)cccc1-c1cccc(OCC2CCCN(CCC(F)(F)F)C2)c1Cl (stereo not shown) [Example 2064, 5-((4-chloro-5-((2′-chloro-2-methyl-3′-((1-(3,3,3-trifluoropropyl)piperidin-3-yl)methoxy)-[1,1′-biphenyl]-3-yl)methoxy)-2-(((pyridazin-3-ylmethyl)amino)methyl)phenoxy)methyl)nicotinonitrile]
28 | Cc1c(COc2cc(OCc3cncc(C#N)c3)c(CNCc3c[nH]cn3)cc2Cl)cccc1-c1cccc(OCC2CCCN(CCC(F)(F)F)C2)c1Cl (stereo not shown) [Example 2065, 5-((2-((((1H-imidazol-4-yl)methyl)amino)methyl)-4-chloro-5-((2′-chloro-2-methyl-3′-((1-(3,3,3-trifluoropropyl)piperidin-3-yl)methoxy)-[1,1′-biphenyl]-3-yl)methoxy)phenoxy)methyl)nicotinonitrile]
75.9 | Cc1c(COc2cc(OCc3cncc(C#N)c3)c(CNCc3ncccn3)cc2Cl)cccc1-c1cccc(OCC2CCCN(CCC(F)(F)F)C2)c1Cl (stereo not shown) [Example 2066, 5-((4-chloro-5-((2′-chloro-2-methyl-3′-((1-(3,3,3-trifluoropropyl)piperidin-3-yl)methoxy)-[1,1′-biphenyl]-3-yl)methoxy)-2-(((pyrimidin-2-ylmethyl)amino)methyl)phenoxy)methyl)nicotinonitrile]
89.6 | Cc1c(COc2cc(OCc3cncc(C#N)c3)c(CNCc3cn[nH]n3)cc2Cl)cccc1-c1cccc(OCC2CCCN(CCC(F)(F)F)C2)c1Cl (stereo not shown) [Example 2068, 5-((2-((((2H-1,2,3-triazol-4-yl)methyl)amino)methyl)-4-chloro-5-((2′-chloro-2-methyl-3′-((1-(3,3,3-trifluoropropyl)piperidin-3-yl)methoxy)-[1,1′-biphenyl]-3-yl)methoxy)phenoxy)methyl)nicotinonitrile]
1.8 | Cc1ncsc1CCNCc1cc(Cl)c(OCc2cccc(-c3cccc(OCCCN4CC[C@@H](O)C4)c3C)c2C)cc1OCc1cncc(C#N)c1 [Example 2504, (R)-5-((4-chloro-5-((3′-(3-(3-hydroxypyrrolidin-1-yl)propoxy)-2,2′-dimethyl-[1,1′-biphenyl]-3-yl)methoxy)-2-(((2-(4-methylthiazol-5-yl)ethyl)amino)methyl)phenoxy)methyl)nicotinonitrile]
0.4 | Cc1c(COc2cc(OCc3cncc(C#N)c3)c(CNCCc3cscn3)cc2Cl)cccc1-c1cccc(OCCCN2CC[C@@H](O)C2)c1C [Example 2506, (R)-5-((4-chloro-5-((3′-(3-(3-hydroxypyrrolidin-1-yl)propoxy)-2,2′-dimethyl-[1,1′-biphenyl]-3-yl)methoxy)-2-(((2-(thiazol-4-yl)ethyl)amino)methyl)phenoxy)methyl)nicotinonitrile]
1.9 | Cc1c(COc2cc(OCc3cncc(C#N)c3)c(CNCCc3cc[nH]n3)cc2Cl)cccc1-c1cccc(OCCCN2CC[C@@H](O)C2)c1C [Example 2514, (R)-5-((2-(((2-(1H-pyrazol-3-yl)ethyl)amino)methyl)-4-chloro-5-((3′-(3-(3-hydroxypyrrolidin-1-yl)propoxy)-2,2′-dimethyl-[1,1′-biphenyl]-3-yl)methoxy)phenoxy)methyl)nicotinonitrile]
